pEC50, pIC50, pKd: −log10 of the molar value.

Consider one molecule from publication PMC6576746, “Rational discovery of dual-indication multi-target PDE/Kinase inhibitor for precision anti-cancer therapy using structural systems pharmacology” (PLoS Computational Biology, 2019).

The subject of test [1] is PFSK-1. The experiment in a line: cells. The note with it: Homo sapiens, PFSK-1, 72 h, cell count, 3 days. Details: species or system panel of human cancer cell lines; Eurofins OncoPanel proliferation; nuclei count by high-content fluorescence imaging, 10-point dose response. The protocol:
(§1) OncoPanel cancer cell proliferation assay was performed by Eurofins Panlabs, Inc. (Missouri, USA). Cancer cells were grown in RPMI 1640, 10% FBS, 2 mM L-alanyl-L-glutamine, 1 mM Na pyruvate, or a special medium. Cells were seeded into 384-well plates and incubated in a humidified atmosphere of 5% CO2 at 37°C. Compounds were added the day following cell seeding. At the same time, a time zero untreated cell plate was generated. After a 3-day incubation period, cells were fixed and stained to allow fluorescence imaging of nuclei. Levosimendan was serially diluted in half-log steps from 100 μM and assayed over 10 concentrations with a maximum assay concentration of 0.1% DMSO. Automated fluorescence microscopy was carried out using a Molecular Devices ImageXpress Micro XL high-content imager, and images were collected with a 4X objective. 16-bit TIFF images were acquired and analyzed with MetaXpress 5.1.0.41 software. Cell count EC50 is the test concentration at the curve inflection point (parameter C), or half the effective response. IC50 is the test compound concentration at 50% of the maximum possible response. GI50 is the concentration needed to reduce the observed growth by half (midway between the relative cell count at the curve maximum and at the time of compound addition). Activity area is an estimate of the integrated area above the response curve. Activity area values range from 0–10, where a value of zero indicates no inhibition of proliferation at all concentrations, and a value of 10 indicates complete inhibition of proliferation at all concentrations.

Test [2] has as its system SNU-1. The experiment in a line: cells. Details: species or system panel of human cancer cell lines; Eurofins OncoPanel proliferation; nuclei count by high-content fluorescence imaging, 10-point dose response. The note with it: Homo sapiens, SNU1, 72 h, cell count, 3 days. The protocol:
as §1

The test system of test [3] is T98G. The test is described as follows: cells. Details: species or system panel of human cancer cell lines; Eurofins OncoPanel proliferation; nuclei count by high-content fluorescence imaging, 10-point dose response. Particulars: Homo sapiens, T98G, 72 h, cell count, 3 days. The protocol:
as §1

The test system of test [4] is U2OS. The experiment in a line: cells. Also on record: species or system panel of human cancer cell lines; Eurofins OncoPanel proliferation; nuclei count by high-content fluorescence imaging, 10-point dose response. The note with it: Homo sapiens, U2OS, 72 h, cell count, 3 days. The protocol:
as §1

In test [5] the test system is SNU-423. The experiment in a line: cells. Particulars: Homo sapiens, SNU-423, 72 h, cell count, 3 days. Also on record: species or system panel of human cancer cell lines; Eurofins OncoPanel proliferation; nuclei count by high-content fluorescence imaging, 10-point dose response. The protocol:
as §1

The target in test [6] is KIT (Homo sapiens, UniProt P10721). The test is described as follows: KinomeScan competition binding assay. Details: DiscoverX KinomeScan panel kinase. The note with it: 10 μM levosimendan.
Chain of KIT (P10721 26-976): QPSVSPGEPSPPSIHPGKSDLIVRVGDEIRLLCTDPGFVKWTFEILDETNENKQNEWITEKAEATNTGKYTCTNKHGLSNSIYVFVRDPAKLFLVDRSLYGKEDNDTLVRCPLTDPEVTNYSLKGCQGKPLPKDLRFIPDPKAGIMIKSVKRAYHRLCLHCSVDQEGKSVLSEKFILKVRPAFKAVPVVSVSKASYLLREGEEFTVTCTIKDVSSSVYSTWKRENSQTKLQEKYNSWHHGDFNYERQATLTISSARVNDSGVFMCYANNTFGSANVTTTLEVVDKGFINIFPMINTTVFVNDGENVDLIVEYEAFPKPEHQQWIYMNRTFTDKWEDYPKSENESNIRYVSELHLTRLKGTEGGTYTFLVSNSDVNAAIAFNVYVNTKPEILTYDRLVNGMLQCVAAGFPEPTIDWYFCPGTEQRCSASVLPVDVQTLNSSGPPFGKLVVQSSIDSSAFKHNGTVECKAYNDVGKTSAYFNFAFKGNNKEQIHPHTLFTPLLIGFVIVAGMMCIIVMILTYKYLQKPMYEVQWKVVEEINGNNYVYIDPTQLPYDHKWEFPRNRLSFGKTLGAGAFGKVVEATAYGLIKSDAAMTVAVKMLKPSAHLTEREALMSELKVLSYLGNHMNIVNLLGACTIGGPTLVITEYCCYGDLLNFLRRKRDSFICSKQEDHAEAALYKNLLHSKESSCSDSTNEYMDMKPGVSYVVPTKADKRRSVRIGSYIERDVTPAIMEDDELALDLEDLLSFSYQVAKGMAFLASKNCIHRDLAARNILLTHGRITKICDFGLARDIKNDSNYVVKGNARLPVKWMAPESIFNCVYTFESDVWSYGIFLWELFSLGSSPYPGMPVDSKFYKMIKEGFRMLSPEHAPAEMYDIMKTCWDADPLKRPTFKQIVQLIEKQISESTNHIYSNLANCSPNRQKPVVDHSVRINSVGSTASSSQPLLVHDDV
The target of test [7] is T1, RIOK3 (Homo sapiens, UniProt O14730).
T1 sequence (O14730 1-519): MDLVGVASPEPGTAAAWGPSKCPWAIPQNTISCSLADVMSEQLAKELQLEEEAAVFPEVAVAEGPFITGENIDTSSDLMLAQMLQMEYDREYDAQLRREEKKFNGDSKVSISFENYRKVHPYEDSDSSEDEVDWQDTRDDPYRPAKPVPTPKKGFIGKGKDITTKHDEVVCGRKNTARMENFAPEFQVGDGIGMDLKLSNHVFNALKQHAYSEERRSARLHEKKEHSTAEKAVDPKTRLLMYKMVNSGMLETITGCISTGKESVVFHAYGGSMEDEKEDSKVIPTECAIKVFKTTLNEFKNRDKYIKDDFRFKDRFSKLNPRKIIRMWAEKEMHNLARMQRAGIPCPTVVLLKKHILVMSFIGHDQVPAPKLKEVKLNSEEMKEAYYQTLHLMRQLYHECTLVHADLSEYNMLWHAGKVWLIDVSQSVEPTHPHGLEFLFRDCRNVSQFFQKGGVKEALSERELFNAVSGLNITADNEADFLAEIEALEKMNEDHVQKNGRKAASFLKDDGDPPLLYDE
The test is described as follows: KinomeScan competition binding assay. Details: DiscoverX KinomeScan panel kinase. Particulars: 10 μM and 100 μM levosimendan.

Test [8] concerns the target T2, RIOK1 (serine/threonine-protein kinase RIOK1) (Homo sapiens, UniProt Q9BRS2).
T2 construct: DiscoverX KinomeScan panel kinase
The test is described as follows: KinomeScan competition binding assay, dose-response. Particulars: DiscoverX; Hill equation fit.

For test [9], the target named is T3, MYLK4 (Homo sapiens, UniProt Q86YV6).
T3 sequence (Q86YV6 1-388): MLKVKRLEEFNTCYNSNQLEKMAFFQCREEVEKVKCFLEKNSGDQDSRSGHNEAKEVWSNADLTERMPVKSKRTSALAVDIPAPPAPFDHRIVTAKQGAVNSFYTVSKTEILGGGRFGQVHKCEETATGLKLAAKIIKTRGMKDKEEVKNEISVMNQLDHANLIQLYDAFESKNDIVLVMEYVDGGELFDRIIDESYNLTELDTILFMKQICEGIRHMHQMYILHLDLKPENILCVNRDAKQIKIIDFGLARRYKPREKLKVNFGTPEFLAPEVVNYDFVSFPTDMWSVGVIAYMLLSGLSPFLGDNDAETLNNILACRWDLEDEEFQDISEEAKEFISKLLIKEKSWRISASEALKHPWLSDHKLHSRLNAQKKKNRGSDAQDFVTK
The test is described as follows: KinomeScan competition binding assay. The note with it: 100 μM levosimendan. Details: DiscoverX KinomeScan panel kinase.

The target in test [10] is T4, GAK (Homo sapiens, UniProt O14976).
T4 construct: DiscoverX KinomeScan panel kinase
T4 sequence (O14976 2-1311): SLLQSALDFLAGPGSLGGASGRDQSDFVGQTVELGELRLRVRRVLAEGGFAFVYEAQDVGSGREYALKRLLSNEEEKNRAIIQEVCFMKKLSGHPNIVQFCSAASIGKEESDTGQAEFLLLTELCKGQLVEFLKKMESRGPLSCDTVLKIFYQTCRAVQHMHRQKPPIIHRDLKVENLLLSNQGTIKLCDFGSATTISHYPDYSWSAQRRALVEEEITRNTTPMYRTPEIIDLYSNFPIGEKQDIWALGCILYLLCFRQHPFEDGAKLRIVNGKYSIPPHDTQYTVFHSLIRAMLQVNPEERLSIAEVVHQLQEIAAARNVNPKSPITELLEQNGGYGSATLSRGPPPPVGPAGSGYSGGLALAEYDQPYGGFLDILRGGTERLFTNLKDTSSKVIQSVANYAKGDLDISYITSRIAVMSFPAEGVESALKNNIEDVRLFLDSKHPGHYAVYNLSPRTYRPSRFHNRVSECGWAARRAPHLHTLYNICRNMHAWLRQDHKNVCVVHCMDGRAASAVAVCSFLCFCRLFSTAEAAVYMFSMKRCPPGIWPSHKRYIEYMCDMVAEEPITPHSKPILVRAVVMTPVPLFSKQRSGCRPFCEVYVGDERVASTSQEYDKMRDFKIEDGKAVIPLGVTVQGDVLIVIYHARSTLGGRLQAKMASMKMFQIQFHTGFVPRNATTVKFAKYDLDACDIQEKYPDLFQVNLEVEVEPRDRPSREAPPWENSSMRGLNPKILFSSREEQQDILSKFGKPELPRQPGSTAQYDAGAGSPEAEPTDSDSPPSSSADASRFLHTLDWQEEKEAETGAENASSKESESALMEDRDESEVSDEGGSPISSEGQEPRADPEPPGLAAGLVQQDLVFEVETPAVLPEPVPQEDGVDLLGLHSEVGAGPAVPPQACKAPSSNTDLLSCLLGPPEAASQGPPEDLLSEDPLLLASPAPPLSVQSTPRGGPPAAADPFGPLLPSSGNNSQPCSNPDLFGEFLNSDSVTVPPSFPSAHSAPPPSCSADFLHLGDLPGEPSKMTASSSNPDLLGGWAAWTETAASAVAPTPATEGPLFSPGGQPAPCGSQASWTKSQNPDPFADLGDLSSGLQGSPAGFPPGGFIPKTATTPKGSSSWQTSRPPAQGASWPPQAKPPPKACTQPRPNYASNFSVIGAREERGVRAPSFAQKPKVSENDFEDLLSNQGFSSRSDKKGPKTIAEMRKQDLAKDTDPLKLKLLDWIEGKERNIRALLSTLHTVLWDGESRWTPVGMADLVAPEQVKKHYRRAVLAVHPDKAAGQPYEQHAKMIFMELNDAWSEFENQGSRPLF
The experiment in a line: KinomeScan competition binding assay. Particulars: 10 μM levosimendan.

In test [11] the target is PIP5K1A (Homo sapiens, UniProt Q99755). The experiment in a line: KinomeScan competition binding assay. Also on record: DiscoverX KinomeScan panel kinase. Particulars: 10 μM levosimendan.
Chain of PIP5K1A (Q99755 whole entry): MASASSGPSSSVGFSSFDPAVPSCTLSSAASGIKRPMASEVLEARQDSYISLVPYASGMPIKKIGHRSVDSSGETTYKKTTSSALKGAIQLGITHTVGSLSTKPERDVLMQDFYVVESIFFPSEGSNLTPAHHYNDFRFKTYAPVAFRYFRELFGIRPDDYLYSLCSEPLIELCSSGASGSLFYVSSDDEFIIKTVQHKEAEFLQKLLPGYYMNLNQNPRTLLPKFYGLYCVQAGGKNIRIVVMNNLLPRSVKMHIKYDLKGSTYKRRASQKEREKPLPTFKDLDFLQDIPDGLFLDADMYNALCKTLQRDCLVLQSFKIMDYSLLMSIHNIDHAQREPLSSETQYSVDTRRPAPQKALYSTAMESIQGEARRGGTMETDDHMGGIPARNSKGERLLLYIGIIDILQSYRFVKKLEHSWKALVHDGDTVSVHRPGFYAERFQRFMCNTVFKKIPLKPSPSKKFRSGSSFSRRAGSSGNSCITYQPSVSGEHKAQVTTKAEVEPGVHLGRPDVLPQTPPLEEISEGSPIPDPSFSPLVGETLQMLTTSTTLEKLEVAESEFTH
The target of test [12] is T5, MAP2K5 (Homo sapiens, UniProt Q13163).
T5 construct: DiscoverX KinomeScan panel kinase
T5 sequence (Q13163 whole entry): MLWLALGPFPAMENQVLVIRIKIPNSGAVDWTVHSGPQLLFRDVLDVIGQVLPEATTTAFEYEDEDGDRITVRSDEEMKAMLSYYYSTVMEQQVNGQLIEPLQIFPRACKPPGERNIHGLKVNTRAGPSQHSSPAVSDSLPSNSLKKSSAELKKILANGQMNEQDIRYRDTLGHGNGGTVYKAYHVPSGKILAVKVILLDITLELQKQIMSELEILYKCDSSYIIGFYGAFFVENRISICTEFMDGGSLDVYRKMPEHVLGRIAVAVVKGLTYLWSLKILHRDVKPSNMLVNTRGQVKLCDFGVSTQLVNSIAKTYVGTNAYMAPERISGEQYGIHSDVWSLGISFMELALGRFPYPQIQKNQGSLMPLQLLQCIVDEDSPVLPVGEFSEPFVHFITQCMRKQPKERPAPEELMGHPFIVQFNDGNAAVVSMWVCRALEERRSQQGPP
The test is described as follows: KinomeScan competition binding assay. The note with it: 10 μM levosimendan.

Test [13] concerns the target T6, FLT3 (Homo sapiens, UniProt P36888).
T6 construct: DiscoverX KinomeScan panel kinase
The test is described as follows: KinomeScan competition binding assay. The note with it: 10 μM levosimendan.

[14] abbreviates: 50% of maximum possible response.

T6 sequence (P36888 27-993): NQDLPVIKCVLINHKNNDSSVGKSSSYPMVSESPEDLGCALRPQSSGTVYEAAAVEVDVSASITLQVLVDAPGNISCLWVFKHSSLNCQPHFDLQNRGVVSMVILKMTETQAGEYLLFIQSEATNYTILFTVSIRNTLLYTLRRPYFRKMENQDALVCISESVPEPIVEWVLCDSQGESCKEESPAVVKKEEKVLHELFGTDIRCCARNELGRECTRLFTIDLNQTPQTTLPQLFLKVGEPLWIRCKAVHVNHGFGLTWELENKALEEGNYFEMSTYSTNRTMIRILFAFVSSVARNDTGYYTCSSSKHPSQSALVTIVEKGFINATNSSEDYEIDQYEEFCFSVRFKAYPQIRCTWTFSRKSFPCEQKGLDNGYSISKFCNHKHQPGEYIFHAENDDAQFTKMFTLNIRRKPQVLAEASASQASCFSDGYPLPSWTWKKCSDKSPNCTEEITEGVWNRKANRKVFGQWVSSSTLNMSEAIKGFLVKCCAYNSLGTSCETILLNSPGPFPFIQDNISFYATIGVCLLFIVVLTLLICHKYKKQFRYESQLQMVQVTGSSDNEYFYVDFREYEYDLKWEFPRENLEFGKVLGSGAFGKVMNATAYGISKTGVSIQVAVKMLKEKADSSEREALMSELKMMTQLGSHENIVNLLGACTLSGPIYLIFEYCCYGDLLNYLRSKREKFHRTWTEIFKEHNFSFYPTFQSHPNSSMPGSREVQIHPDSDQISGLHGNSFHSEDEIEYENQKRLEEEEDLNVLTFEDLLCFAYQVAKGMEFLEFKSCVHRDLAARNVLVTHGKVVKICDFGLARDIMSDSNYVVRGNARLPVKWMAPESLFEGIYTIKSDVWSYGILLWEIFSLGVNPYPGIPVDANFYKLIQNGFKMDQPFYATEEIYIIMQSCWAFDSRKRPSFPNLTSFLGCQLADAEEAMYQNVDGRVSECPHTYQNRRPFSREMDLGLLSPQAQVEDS
T2 sequence (Q9BRS2 whole entry): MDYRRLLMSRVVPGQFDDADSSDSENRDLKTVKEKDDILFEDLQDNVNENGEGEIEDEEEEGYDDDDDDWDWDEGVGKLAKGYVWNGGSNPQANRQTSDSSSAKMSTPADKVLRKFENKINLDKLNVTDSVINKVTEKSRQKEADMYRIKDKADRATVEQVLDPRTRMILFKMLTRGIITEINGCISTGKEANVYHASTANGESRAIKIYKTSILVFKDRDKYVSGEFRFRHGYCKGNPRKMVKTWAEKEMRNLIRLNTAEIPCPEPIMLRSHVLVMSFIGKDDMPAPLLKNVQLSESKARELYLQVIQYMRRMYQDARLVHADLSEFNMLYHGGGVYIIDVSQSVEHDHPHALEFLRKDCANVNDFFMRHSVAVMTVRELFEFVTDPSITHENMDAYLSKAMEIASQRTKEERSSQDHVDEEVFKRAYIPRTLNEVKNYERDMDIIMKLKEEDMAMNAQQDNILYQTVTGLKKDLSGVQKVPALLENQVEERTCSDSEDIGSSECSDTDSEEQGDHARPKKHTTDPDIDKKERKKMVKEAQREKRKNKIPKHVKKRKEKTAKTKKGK

As for `C[C@@H]1CC(=O)NN=C1c1ccc(NN=C(C#N)C#N)cc1` [levosimendan], the pIC50 in [1] (setting [14]) is 4.71; in [2] (setting [14]) it was 5.20; in test [3] (setting [14]), under 4.00; in test [4] (setting [14]), 5.07; in test [5] (setting [14]), 4.72. Moreover, the GI50 is 13.9 µM in test [1] (corrected for time zero); 5.53 µM in [2] (corrected for time zero); over 100 µM in [3] (corrected for time zero); 6.64 µM in [4] (corrected for time zero); 16.5 µM in [5] (corrected for time zero). The negative logarithm of the EC50 (pEC50) was 4.71 in test [1] (curve inflection point); 5.26 in test [2] (curve inflection point); under 4.00 in [3] (curve inflection point); 5.12 in [4] (curve inflection point); 4.83 in [5] (curve inflection point). For the same molecule, the “percentage control at 10 μM” value in test [6], in test [10], in test [11], in test [12] and in test [13] was under 30.0% each time. Moreover, the percentage control entry in [7] is “RIOK3, the closest homolog of RIOK1, showed the similar binding strength as RIOK1”. The negative-log Kd (pKd) in test [8] was 6.09. Moreover, the “percentage control at 100 μM” value in [9] is “two have intermediate binding affinities (MYLK4 and CAMK2)”.
